Source: PubChem BioAssay (NCI)
Where “and” joins values, the source holds several entries; their conditions need not be identical. Identical values can stand only once.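 Grown in 96-well plates, cells were treated for 48 hours with each compound at five concentrations. Insufficient inhibition: endpoint recorded as highest concentration tested. The concentration for 50% growth inhibition is given as GI50. Definition used: TGI = concentration required for complete inhibition of growth.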

What was measured:
Assay in all cases: NCI anticancer screen, dose series, 48 h
LOX IMVI melanoma = tested on: LOX IMVI melanoma
RXF 393 renal = tested on: RXF 393 renal
SNB-19 CNS = tested on: SNB-19 CNS
SF-268 CNS = tested on: SF-268 CNS
SNB-75 CNS = tested on: SNB-75 CNS
CCRF-CEM leukemia = tested on: CCRF-CEM leukemia
IGROV1 ovarian = tested on: IGROV1 ovarian
OVCAR-4 ovarian = tested on: OVCAR-4 ovarian
K-562 leukemia = tested on: K-562 leukemia
786-0 renal = tested on: 786-0 renal

SMILES	GI50 (LOX IMVI melanoma)	TGI (LOX IMVI melanoma)	GI50 (RXF 393 renal) [µM]	TGI (RXF 393 renal)	GI50 (SNB-19 CNS) [µM]	TGI (SNB-19 CNS)	GI50 (SF-268 CNS)	TGI (SF-268 CNS)	GI50 (SNB-75 CNS) [µM]	TGI (SNB-75 CNS)	GI50 (CCRF-CEM leukemia)	TGI (CCRF-CEM leukemia)	GI50 (IGROV1 ovarian) [µM]	TGI (IGROV1 ovarian)	GI50 (OVCAR-4 ovarian)	TGI (OVCAR-4 ovarian)	GI50 (K-562 leukemia)	TGI (K-562 leukemia)	GI50 (786-0 renal) [µM]	TGI (786-0 renal)
C/C(=N\NC(=S)Nc1ccccc1)c1ccccn1	0.0395 µM	2.04 µM	0.588	2.64 µM	1.1	16.4 µM	0.205 µM	5.17 µM	1.86	11 µM	< 0.01 µM	> 100 µM	< 0.0163	9.26 µM	0.0362 µM	1.78 µM	< 0.01 µM	6.93 µM	0.277	1.99 µM
O=S(=O)(Nc1ccc2ccc3cccc4ccc1c2c34)c1ccccc1	–	> 100 µM	–	> 100 µM	–	> 100 µM	–	> 100 µM	–	> 100 µM	–	53 µM	–	> 100 µM	–	> 100 µM	–	> 100 µM	–	> 100 µM
CCN(CC)c1ccc(/C=C/C2=[N+](C)c3ccccc3C2(C)C)cc1	0.251 µM	23 µM	0.75	16.5 µM	0.326	15.4 µM	0.627 µM	33.2 µM	0.34	17.3 µM	0.183 µM	> 100 µM	0.709	> 85.6 µM	0.292 µM	29.7 µM	3.44 µM	> 100 µM	0.653	13.6 µM
CN(C)CC1CCCC(CN(C)C)C1=O (stereo not drawn)	3.4 µM and 8.45 µM	7.09 µM and 30.3 µM	–	3.29 µM and 3.25 µM	–	68 µM and > 65.4 µM	11.5 µM and 23.4 µM	31.7 µM and 65.6 µM	–	29.8 µM and 31.1 µM	0.155 µM and 0.0588 µM	0.559 µM and 0.21 µM	–	37.2 µM and 38.4 µM	1.89 µM and 7.01 µM	3.51 µM and 18.5 µM	0.119 µM and 0.677 µM	0.601 µM	–	5.94 µM and 4.61 µM
COC12c3ccccc3-c3ccccc3C1[C@@H](C(=O)O)[C@H]2C(=O)O (stereo partly drawn)	–	> 10 µM	–	> 10 µM	–	> 10 µM	–	> 10 µM	–	> 10 µM	–	> 10 µM	–	> 10 µM	–	> 10 µM	–	> 10 µM	–	> 10 µM
O=c1[nH]cnc2c1nnn2C1C=C(CO)C(O)C1O (stereo not drawn)	–	81.5 µM	–	> 100 µM	–	> 100 µM	–	> 100 µM	–	> 100 µM	–	> 100 µM	–	> 100 µM	–	> 100 µM	–	> 100 µM	–	> 100 µM
O=C(O)Cc1ccccc1	> 1000 µM	> 2000 µM	> 1000	> 1000 µM and 1940 µM	> 1000	> 2000 µM	> 1000 µM	> 2000 µM	> 1000	> 2000 µM	> 1000 µM	> 2000 µM	> 1000	> 2000 µM	> 1000 µM	> 1000 µM and 727 µM	> 1000 µM	> 1000 µM and 1010 µM	–	> 2000 µM
O=C(/C=C/c1cccnc1)/C=C/c1cccnc1	1.13 µM	2.42 µM	0.608	1.53 µM	3.64	11.6 µM	2.73 µM	7.77 µM	1.8	7.33 µM	0.199 µM	0.821 µM	0.463	1.82 µM	2 µM	4.52 µM	0.383 µM	–	2.1	6.03 µM
COc1cc2c(cc1OCCCN1CCN(CCCOc3cc4c(cc3OC)C(=O)C3CCC[C@H]3C=N4)CC1)N=C[C@@H]1CCCC1C2=O (stereo partly drawn)	3.65 µM	> 60.7 µM	3	17.5 µM	23.7	> 100 µM	3 µM	> 100 µM	24.8	> 85.4 µM	0.478 µM	> 74.3 µM	3.27	> 23.6 µM	74.3 µM	> 100 µM	2.09 µM	> 100 µM	3.84	> 100 µM
CCN1N=CSC12C(=O)N(c1ccccc1)C(=O)N2c1ccccc1 (stereo not drawn)	–	> 100 µM	–	> 100 µM	–	> 100 µM	–	> 100 µM	–	> 100 µM	–	> 100 µM	–	> 100 µM	–	> 100 µM	–	> 100 µM	–	> 100 µM
COC(=O)Oc1nn(C(=O)OC)c(=O)c2ccccc12 (tested in a mixture with another compound)	–	> 100 µM	–	> 100 µM	–	> 100 µM	–	> 100 µM	–	> 100 µM	–	> 100 µM	–	> 100 µM	–	> 100 µM	–	> 100 µM	–	> 100 µM
Cn1cc(-c2csc(-c3cn(C)c4ncccc34)n2)c2ccccc21	0.652 µM	> 100 µM	0.299	2.96 µM	0.574	27 µM	1.12 µM	37.4 µM	0.191	0.737 µM	0.368 µM	> 61.6 µM	1.28	33.6 µM	7.1 µM	44 µM	0.103 µM	16.6 µM	0.588	18.1 µM
CC1OC(OC2C(OC3CCC4(C)C(CCC5(C)C4CC=C4C6CC(C)(C)CCC6(CO)C(O)CC45C)C3(C)C)OC(C(=O)O)C(OC3OC(COC4OC(CO)C(O)C(O)C4O)C(O)C(O)C3O)C2O)C(O)C(O)C1O (stereo not drawn)	10.7 µM	21.6 µM	8.94	19.8 µM	13.9	28 µM	13.1 µM	27.1 µM	11.2	23 µM	3.88 µM	20.7 µM	7.1	17.5 µM	3.1 µM	12.8 µM	3.09 µM	15.4 µM	1.15	3.01 µM
O=C1/C(=C\c2ccccc2)CN(C(=O)c2ccccc2F)C/C1=C\c1ccccc1	0.746 µM	2.17 µM	1.8	3.41 µM	1.85	4.15 µM	2.8 µM	8.85 µM	3.5	14.5 µM	1.52 µM	5.62 µM	2.08	4.46 µM	3.04 µM	11.2 µM	0.992 µM	> 20.7 µM	1.85	3.56 µM
C#CCSc1nnnn1-c1ccc(Br)c(C)c1	20.9 µM	> 100 µM	27.3	> 100 µM	74	> 100 µM	24.6 µM	> 100 µM	25.7	> 100 µM	29.5 µM	> 100 µM	2.77	9.16 µM	31.1 µM	> 100 µM	27.6 µM	> 100 µM	54.9	> 100 µM
COc1cc(-c2cn(-c3ccc(Cl)cc3)c(=O)n2-c2ccccc2)cc(OC)c1OC	46.2 µM	> 100 µM	25.4	> 81.9 µM	44.7	> 100 µM	> 68.9 µM	> 100 µM	5.51	41.8 µM	> 100 µM	> 100 µM	30.6	> 69.2 µM	21.4 µM	> 90.7 µM	> 100 µM	> 100 µM	> 83.1	> 100 µM
CC1=C(C(=O)Nc2cc(F)c(F)cc2F)C(c2cccc([N+](=O)[O-])c2)C(C(=O)Nc2ccccc2C(F)(F)F)=C(C)N1 (stereo not drawn)	–	39.4 µM	–	46.2 µM	–	> 100 µM	–	54.6 µM	–	38.4 µM	–	55.1 µM	–	> 100 µM	–	66.1 µM	–	36.7 µM	–	40.3 µM
COc1ccc2c(c1)C(=O)/C(=C/c1ccc(OCC(=O)c3ccc(Cl)cc3)cc1)O2	5.44 µM	19.8 µM	17.3	42.4 µM	48.2	> 100 µM	18.4 µM	48.6 µM	12.2	79.9 µM	1.92 µM	4.75 µM	11.1	35.3 µM	13.3 µM	36.7 µM	1.77 µM	4.64 µM	21.7	47.2 µM
Oc1ccc(-c2nc(-c3ccc(F)cc3)c(-c3ccncc3)[nH]2)cc1	28.6 µM	> 100 µM	8.92	43.2 µM	35.3	> 100 µM	19.3 µM	> 100 µM	8.86	> 100 µM	9.62 µM	59.8 µM	4.3	29.4 µM	16.5 µM	> 100 µM	15.9 µM	> 100 µM	12.5	> 100 µM
CCOC(=O)/C(=C/c1c(-c2ccccc2)[nH]c2ccccc12)C(=O)c1ccc(Cl)cc1	3.64 µM	> 100 µM	17.4	> 100 µM	7.96	> 100 µM	6.06 µM	> 100 µM	4.87	> 100 µM	2.73 µM	> 100 µM	19.9	> 100 µM	4.82 µM	> 100 µM	3.42 µM	> 100 µM	3.75	> 100 µM
COc1ccc(C(NCCNC(c2ccc(OC)c(OC)c2)c2cc3c(cc2O)OCO3)c2cc3c(cc2O)OCO3)cc1OC (stereo not drawn)	–	3.51 µM	–	4.85 µM	–	15.4 µM	–	3.24 µM	–	11.5 µM	–	0.86 µM	–	7.67 µM	–	11.5 µM	–	> 28.1 µM	–	4.58 µM
